# Laboratory results reported in ChEMBL document CHEMBL1201862, “PubChem BioAssay data set” (2004).
#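 The compound was tested at five concentrations on cells cultured in 96-well plates, with a 48-hour exposure period. GI50 marks 50% less growth.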 Active and inactive are the calls of the source. Cut-off read from the data, not from the text of the source: active = GI50 up to about 1.1 µM and inactive = higher.
# How the values were obtained:
# Experiment in all cases: NCI-60 cell line screen, 48 h
# 786-0 = tested on: 786-0
# A498 = tested on: A498
# A549 = tested on: A549
# ACHN = tested on: ACHN
# BT-549 = tested on: BT-549
# CAKI-1 = tested on: CAKI-1
# CCRF-CEM = tested on: CCRF-CEM
# COLO 205 = tested on: COLO 205
# DU-145 = tested on: DU-145
# EKVX = tested on: EKVX
# HCC 2998 = tested on: HCC 2998
# HCT-116 = tested on: HCT-116
# HCT-15 = tested on: HCT-15
# HOP-62 = tested on: HOP-62
# HOP-92 = tested on: HOP-92
# HT-29 = tested on: HT-29
# Hs-578T = tested on: Hs-578T
# IGROV-1 = tested on: IGROV-1
# K562 = tested on: K562
# KM12 = tested on: KM12
# LOX IMVI = tested on: LOX IMVI
# M14 = tested on: M14
# MCF7 = tested on: MCF7
# MDA-MB-231 = tested on: MDA-MB-231
# MDA-MB-435 = tested on: MDA-MB-435
# MDA-N = tested on: MDA-N
# MOLT-4 = tested on: MOLT-4
# Malme-3M = tested on: Malme-3M
# NCI-H226 = tested on: NCI-H226
# NCI-H23 = tested on: NCI-H23
# NCI-H460 = tested on: NCI-H460
# NCI-H522 = tested on: NCI-H522
# NCI/ADR-RES = tested on: NCI/ADR-RES
# OVCAR-3 = tested on: OVCAR-3
# OVCAR-4 = tested on: OVCAR-4
# OVCAR-5 = tested on: OVCAR-5
# OVCAR-8 = tested on: OVCAR-8
# PC-3 = tested on: PC-3
# RPMI-8226 = tested on: RPMI-8226
# RXF 393 = tested on: RXF 393
# SF-268 = tested on: SF-268
# SF-295 = tested on: SF-295
# SF-539 = tested on: SF-539
# SK-MEL-28 = tested on: SK-MEL-28
# SK-MEL-2 = tested on: SK-MEL-2
# SK-MEL-5 = tested on: SK-MEL-5
# SK-OV-3 = tested on: SK-OV-3
# SN12C = tested on: SN12C
# SNB-19 = tested on: SNB-19
# SNB-75 = tested on: SNB-75
# SR = tested on: SR
# SW-620 = tested on: SW-620
# T47D = tested on: T47D
# TK-10 = tested on: TK-10
# U-251 = tested on: U-251
# UACC-257 = tested on: UACC-257
# UACC-62 = tested on: UACC-62
# UO-31 = tested on: UO-31
structure (smiles),measurement,setting,value
COC(=O)/C(=C\c1ccco1)P(=O)(OC)OC,GI50,786-0,47.4 µM (inactive)
same,GI50,A498,54.3 µM (inactive)
same,GI50,A549,85.1 µM (inactive)
same,GI50,ACHN,29.4 µM (inactive)
same,GI50,BT-549,26.6 µM (inactive)
same,GI50,CAKI-1,25.2 µM (inactive)
same,GI50,CCRF-CEM,30.5 µM (inactive)
same,GI50,COLO 205,> 100 µM (inactive)
same,GI50,DU-145,80.9 µM (inactive)
same,GI50,EKVX,43.3 µM (inactive)
same,GI50,HCC 2998,> 100 µM (inactive)
same,GI50,HCT-116,44 µM (inactive)
same,GI50,HCT-15,75.5 µM
same,GI50,HOP-62,25.4 µM (inactive)
same,GI50,HOP-92,25.2 µM (inactive)
same,GI50,HT-29,25.9 µM (inactive)
same,GI50,Hs-578T,54.1 µM (inactive)
same,GI50,IGROV-1,> 100 µM (inactive)
same,GI50,K562,> 100 µM (inactive)
same,GI50,KM12,> 100 µM (inactive)
same,GI50,LOX IMVI,19.9 µM (inactive)
same,GI50,M14,55.7 µM (inactive)
same,GI50,MCF7,17.4 µM (inactive)
same,GI50,MDA-MB-231,38.8 µM (inactive)
same,GI50,MDA-MB-435,34.8 µM (inactive)
same,GI50,MDA-N,56.1 µM (inactive)
same,GI50,MOLT-4,> 100 µM (inactive)
same,GI50,Malme-3M,16.4 µM (inactive)
same,GI50,NCI-H226,58.3 µM (inactive)
same,GI50,NCI-H23,30.5 µM (inactive)
same,GI50,NCI-H460,48.3 µM (inactive)
same,GI50,NCI-H522,2.49 µM (inactive)
same,GI50,NCI/ADR-RES,24.5 µM (inactive)
same,GI50,OVCAR-3,26.9 µM (inactive)
same,GI50,OVCAR-4,17.8 µM (inactive)
same,GI50,OVCAR-5,16.2 µM (inactive)
same,GI50,OVCAR-8,31.5 µM (inactive)
same,GI50,PC-3,73.5 µM (inactive)
same,GI50,RPMI-8226,67.8 µM (inactive)
same,GI50,RXF 393,24.4 µM (inactive)
same,GI50,SF-268,97.3 µM (inactive)
same,GI50,SF-295,20 µM (inactive)
same,GI50,SF-539,32.5 µM (inactive)
same,GI50,SK-MEL-28,52.8 µM (inactive)
same,GI50,SK-MEL-2,30.9 µM (inactive)
same,GI50,SK-MEL-5,62.4 µM (inactive)
same,GI50,SK-OV-3,73.6 µM (inactive)
same,GI50,SN12C,39.9 µM (inactive)
same,GI50,SNB-19,65.2 µM (inactive)
same,GI50,SNB-75,35.2 µM (inactive)
same,GI50,SR,52.8 µM (inactive)
same,GI50,SW-620,89.5 µM (inactive)
same,GI50,T47D,> 100 µM (inactive)
same,GI50,TK-10,> 100 µM (inactive)
same,GI50,U-251,41 µM (inactive)
same,GI50,UACC-257,65.8 µM (inactive)
same,GI50,UACC-62,47.6 µM (inactive)
CC(=O)OC1=CC2=CC[C@H]3[C@@H]4CCC(=O)[C@@]4(C)CC(=O)[C@]3(S)[C@@]2(C)CC1,GI50,786-0,27.8 µM (inactive)
same,GI50,A498,41.1 µM (inactive)
same,GI50,A549,49.4 µM (inactive)
same,GI50,ACHN,34.2 µM (inactive)
same,GI50,BT-549,35 µM (inactive)
same,GI50,CAKI-1,35.2 µM (inactive)
same,GI50,CCRF-CEM,29 µM (inactive)
same,GI50,COLO 205,32.4 µM (inactive)
same,GI50,DU-145,62.5 µM (inactive)
same,GI50,EKVX,> 100 µM (inactive)
same,GI50,HCC 2998,31.6 µM (inactive)
same,GI50,HCT-116,21.7 µM (inactive)
same,GI50,HCT-15,34.2 µM
same,GI50,HOP-62,38.9 µM (inactive)
same,GI50,HOP-92,24.8 µM (inactive)
same,GI50,HT-29,> 100 µM (inactive)
same,GI50,Hs-578T,25.1 µM (inactive)
same,GI50,IGROV-1,27 µM (inactive)
same,GI50,K562,25.1 µM (inactive)
same,GI50,KM12,26.3 µM (inactive)
same,GI50,LOX IMVI,18.8 µM (inactive)
same,GI50,M14,36.9 µM (inactive)
same,GI50,MCF7,30.6 µM (inactive)
same,GI50,MDA-MB-231,26 µM (inactive)
same,GI50,MDA-MB-435,30.7 µM (inactive)
same,GI50,MDA-N,31.7 µM (inactive)
same,GI50,MOLT-4,17.4 µM (inactive)
same,GI50,Malme-3M,22.8 µM (inactive)
same,GI50,NCI-H23,36.6 µM (inactive)
same,GI50,NCI-H460,25.2 µM (inactive)
same,GI50,NCI-H522,20 µM (inactive)
same,GI50,NCI/ADR-RES,75.7 µM (inactive)
same,GI50,OVCAR-3,22.7 µM (inactive)
same,GI50,OVCAR-4,57.8 µM (inactive)
same,GI50,OVCAR-5,> 100 µM (inactive)
same,GI50,OVCAR-8,31.3 µM (inactive)
same,GI50,PC-3,32.9 µM (inactive)
same,GI50,RPMI-8226,20.9 µM (inactive)
same,GI50,RXF 393,18.7 µM (inactive)
same,GI50,SF-268,26.7 µM (inactive)
same,GI50,SF-295,48.4 µM (inactive)
same,GI50,SF-539,20 µM (inactive)
same,GI50,SK-MEL-28,55 µM (inactive)
same,GI50,SK-MEL-2,47.1 µM (inactive)
same,GI50,SK-MEL-5,31.6 µM (inactive)
same,GI50,SK-OV-3,65.6 µM (inactive)
same,GI50,SN12C,37.6 µM (inactive)
same,GI50,SNB-19,79.8 µM (inactive)
same,GI50,SNB-75,40.5 µM (inactive)
same,GI50,SR,23.6 µM (inactive)
same,GI50,SW-620,31.6 µM (inactive)
same,GI50,T47D,34.8 µM (inactive)
same,GI50,TK-10,27.9 µM (inactive)
same,GI50,U-251,29.6 µM (inactive)
same,GI50,UACC-257,27.3 µM (inactive)
same,GI50,UACC-62,26.1 µM (inactive)
same,GI50,UO-31,51.1 µM (inactive)
